Results reported in ChEMBL document CHEMBL5579796, “Inhibition of dengue viruses by N-methylcytisine thio derivatives through targeting viral envelope protein and NS2B-NS3 protease” (Bioorg Med Chem Lett, 2024).
Activity calls are given as the source filed them. The rule behind the calls is not given here.

How the values were obtained:
dengue virus type 2 [1] = assay: Antiviral activity against DENV-2 16,681 infected in Vero E6 cells assessed as reduction in viral infection by measuring NS4B positive cells at 10 uM incubated for 4 days by immunofluorescence assay; format: functional; parameters: scale not given: the % may be the effect or the level left; conditions: time 4 day
dengue virus type 2 [2] = assay: Antiviral activity against DENV-2 16,681 infected in Vero E6 cells assessed as reduction in virus induced cytopathic effect at 10 uM incubated for 4 days by inverted microscopic analysis; format: functional, organism-based; conditions: time 4.0 day
[3] = Selectivity index, ratio of CC50 for african green monkey Vero E6 cells to EC50 for antiviral activity against DENV-2 16,681 infected in Vero E6 cells; format: toxicity, cell-based; conditions: read-out: Ratio CC50/EC50
[4] = Cytotoxicity against african green monkey Vero E6 cells by MTT assay; format: toxicity, cell-based, Vero C1008; conditions: chlorocebus sabaeus
dengue virus type 2 [5] = assay: Antiviral activity against DENV-2 16,681 infected in Vero E6 cells assessed as reduction in viral infectivity by measuring NS4B-positive cells pretreated with compound for 1 hr followed by viral infection and washout measured after 96 hrs by immunofluorescence analysis; format: functional, organism-based; conditions: Dengue virus, 16,681, Vero C1008
dengue virus type 2 [6] = assay: Antiviral activity against DENV-2 16,681 infected in Vero E6 cells assessed as reduction in virus induced cytopathic effect measured after 96 hrs by inverted microscopic analysis; format: functional, organism-based; conditions: Dengue virus, 16,681, Vero C1008, 96 h
dengue virus type 2 [7] = assay: Antiviral activity against DENV-2 16,681 infected in Vero E6 cells assessed as reduction in viral infectivity by measuring NS4B-positive cells incubated for 1 hr followed by washout and subsequent culturing; format: functional, organism-based; conditions: Dengue virus, 16,681, Vero C1008, 1 h
dengue virus type 2 [8] = assay: Antiviral activity against DENV-2 16,681 infected in Vero E6 cells assessed as reduction in viral infectivity by measuring NS4B-positive cells at 10 uM pretreated with compound for 1 hr followed by viral infection and washout measured after 96 hrs by immunofluorescence analysis; format: functional; parameters: scale not given: the % may be the effect or the level left
dengue virus type 2 [9] = assay: Antiviral activity against DENV-2 16,681 infected in Vero E6 cells assessed as reduction in viral infectivity by measuring NS4B-positive cells pretreated with virus for 1 hr followed by compound addition for 1 hr prior to washout and measured after 96 hrs by immunofluorescence analysis; format: functional, organism-based; conditions: Dengue virus, 16,681, Vero C1008
dengue virus type 2 [10] = assay: Antiviral activity against DENV-2 16,681 infected in A549 cells assessed as reduction in virus induced cytopathic effect measured after 96 hrs by inverted microscopic analysis; format: functional, organism-based; conditions: Dengue virus, 16,681, A549, 96 h
dengue virus type 2 [11] = assay: Antiviral activity against DENV-2 16,681 infected in Vero E6 cells assessed as reduction in viral infectivity by measuring NS4B-positive cells incubated for 1 hr followed by washout and measured after 96 hrs by immunofluorescence analysis; format: functional, organism-based; conditions: Dengue virus, 16,681, Vero C1008
dengue virus type 2 [12] = assay: Antiviral activity against DENV-2 16,681 infected in Vero E6 cells assessed as reduction in viral infectivity by measuring NS4B-positive cells at 0.1 uM incubated for 1 hr followed by washout and measured after 96 hrs by immunofluorescence analysis; format: functional; parameters: scale not given: the % may be the effect or the level left
dengue virus type 2 [13] = assay: Antiviral activity against DENV-2 16,681 infected in Vero E6 cells assessed as reduction in viral infectivity by measuring NS4B-positive cells at 1 uM pretreated with virus for 1 hr followed by compound addition for 1 hr prior to washout and measured after 96 hrs by immunofluorescence analysis; format: functional; parameters: scale not given: the % may be the effect or the level left
[14] = Selectivity index, ratio of CC50 for human A549 cells to EC50 for antiviral activity against DENV-2 16,681 infected in A549 cells; format: toxicity, cell-based; conditions: read-out: Ratio CC50/EC50
Genome polyprotein = Genome polyprotein (dengue virus type 2, UniProt P29990); assay: Inhibition of DENV-2 NS2B/NS3 protease expressed in HEK293 cells cotransfected with CFP-trrg-YFP incubated for 24 hrs by FRET assay; format: cell-based
[15] = Cytotoxicity against human A549 cells by MTT assay; format: toxicity, cell-based

Compound | Activity (dengue virus type 2 [1]) [%] | Activity (dengue virus type 2 [2]) | selectivity ratio [3] | CC50 [4] [nM] | EC50 (dengue virus type 2 [5]) [nM] | EC50 (dengue virus type 2 [6]) [nM] | EC50 (dengue virus type 2 [7]) [nM] | Activity (dengue virus type 2 [8]) [%] | EC50 (dengue virus type 2 [9]) [nM] | EC50 (dengue virus type 2 [10]) [nM] | EC50 (dengue virus type 2 [11]) [nM] | Activity (dengue virus type 2 [12]) [%] | Activity (dengue virus type 2 [13]) | selectivity ratio [14] | IC50 (Genome polyprotein) [nM] | CC50 [15] [nM]
CN1C[C@@H]2C[C@H](C1=S)c1cccc(=S)n1C2 | 61 | Active | – | – | – | – | – | – | – | – | – | – | – | – | – | –
CN1C[C@H]2C[C@H](Cn3c2cccc3=O)C1=S | 64.9 | Active | – | – | – | – | – | – | – | – | – | – | – | – | – | –
CN1C[C@H]2C[C@H](Cn3c2cccc3=S)C1=S | 60 | Active | – | – | – | – | – | – | – | – | – | – | – | – | – | –
CN1C[C@@H]2C[C@H](C1=S)c1cccc(=O)n1C2 | 95 | Active | > 10000 | > 50000 | > 10000 | 5 | 100 | <40 | 670 | 2 | 20 | >50 | >60% | > 25000 | 2760 | > 50000
CN1C[C@@H]2C[C@H](C1)c1cccc(=S)n1C2 | 88.7 | Active | > 53.2 | > 50000 | > 10000 | 940 | 1020 | <40 | 4080 | 2110 | 110 | >50 | inactive | > 23.7 | 13500 | > 50000
